From PMC7329864, “Role of water in cyclooxygenase catalysis and design of anti-inflammatory agents targeting two sites of the enzyme” (Scientific Reports, 2020) come the findings set out here.

Entries after “also recorded” stand apart in the source; their conditions may differ. Where two headings read alike, the source gives them in different places. Some results are limits rather than exact numbers.

One assay deals with T1, COX-1 (Ovis aries, UniProt P05979).
T1 construct: purchased Cayman Chemical Co. item no; 560131
T1 sequence (P05979 25-600): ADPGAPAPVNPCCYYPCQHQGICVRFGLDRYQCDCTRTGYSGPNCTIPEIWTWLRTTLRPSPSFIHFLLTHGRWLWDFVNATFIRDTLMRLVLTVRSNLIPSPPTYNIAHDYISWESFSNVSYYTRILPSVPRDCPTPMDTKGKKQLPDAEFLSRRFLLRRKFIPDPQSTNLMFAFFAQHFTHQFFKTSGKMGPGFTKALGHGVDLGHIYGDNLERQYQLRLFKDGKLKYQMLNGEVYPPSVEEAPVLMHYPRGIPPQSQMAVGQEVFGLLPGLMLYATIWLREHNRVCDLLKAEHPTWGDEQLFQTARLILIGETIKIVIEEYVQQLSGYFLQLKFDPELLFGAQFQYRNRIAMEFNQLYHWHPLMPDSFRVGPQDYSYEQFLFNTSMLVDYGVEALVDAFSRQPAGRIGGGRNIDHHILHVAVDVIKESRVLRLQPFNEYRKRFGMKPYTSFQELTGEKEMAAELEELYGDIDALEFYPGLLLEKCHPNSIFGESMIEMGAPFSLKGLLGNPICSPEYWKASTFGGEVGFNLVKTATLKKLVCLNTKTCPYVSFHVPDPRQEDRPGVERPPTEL
Description: COX inhibitory enzyme immunoassay (COX-1). It counts as biochemical. As for the experimental part:
(§1) All the compounds of Fig. 9 were screened for COX-1/2 inhibitory activity in triplicate at 10^–4–10^–8 M concentration by performing enzyme immunoassays. The activity of the compounds was quantified in terms of amount of prostaglandins produced by the enzymes in the presence of different concentrations of the compound.
(§2) For studying the COX-1, COX-2 inhibitory activities of the compounds, various reagents were prepared as per the protocol of the assays. The compounds were screened in triplicate at 10^–4–10^–8 M concentration using the procedure as described in the previous report.

The next assay has as its target T2, wt COX-2 (Homo sapiens, UniProt P35354).
T2 construct: purchased Cayman Chemical Co. item no; 560131
T2 sequence (P35354 18-604): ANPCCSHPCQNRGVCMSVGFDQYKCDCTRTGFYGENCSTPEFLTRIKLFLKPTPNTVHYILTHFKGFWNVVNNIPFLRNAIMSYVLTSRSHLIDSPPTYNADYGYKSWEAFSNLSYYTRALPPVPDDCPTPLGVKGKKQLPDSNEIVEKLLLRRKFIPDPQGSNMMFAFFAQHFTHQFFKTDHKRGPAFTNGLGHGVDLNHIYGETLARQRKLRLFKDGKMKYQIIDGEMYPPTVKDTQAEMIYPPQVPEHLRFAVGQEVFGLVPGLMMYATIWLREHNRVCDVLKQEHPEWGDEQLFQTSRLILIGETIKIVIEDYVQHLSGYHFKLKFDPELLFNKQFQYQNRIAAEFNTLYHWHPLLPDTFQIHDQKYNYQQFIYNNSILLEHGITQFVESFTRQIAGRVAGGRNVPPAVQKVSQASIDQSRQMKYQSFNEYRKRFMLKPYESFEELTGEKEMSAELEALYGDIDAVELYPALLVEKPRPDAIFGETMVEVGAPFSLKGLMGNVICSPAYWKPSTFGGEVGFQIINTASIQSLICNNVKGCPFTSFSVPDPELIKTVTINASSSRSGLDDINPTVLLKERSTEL
Briefly: COX inhibitory enzyme immunoassay (COX-2). The class given is biochemical. The conditions noted are these: for IC50: enzyme immunoassay, screened at 10^–4–10^–8 M, average of 3 experiments, SD ± 0.5 µM; for SI (IC50(COX-1)/IC50 (COX-2): selectivity index COX-1/COX-2. As for the experimental part:
as §1, §2

The target in another assay is T3, COX-2 (Homo sapiens, UniProt P35354).
T3 sequence (P35354 18-604): T2 sequence (P35354 18-604)
Description: UV-Vis and fluorescence studies of interaction with COX-2. It counts as binding. The conditions noted are these: addition of COX-2 in Tris–HCl buffer pH 7.25 to solution of compound. The source says: In order to support in-silico experiments, the interactions of 1, 13d and 15d with COX-2 were checked with UV–vis and fluorescence spectral techniques. […] The appearance of level-off in the visible region (500–700 nm) was attributed to the Mie scattering due to the formation of aggregates. […] Corroborating the results of molecular modelling studies, the changes in the UV–Vis spectra as well as the fluorescence spectrum of the compound on addition of COX-2 probably occurred due to the HOMO–LUMO interactions between 1 and the enzyme (Figure S26). The linear Stern–Volmer plot of decrease in fluorescence intensity at 567 nm on increasing COX-2 concentration gave Stern–Volmer constant Ksv 3.30 × 10^4 M^-1. The detection limit of the compound for COX-2 was 0.02 nM (Figure S26C,D).
In order to support in-silico experiments, the interactions of 1, 13d and 15d with COX-2 were checked with UV-vis and fluorescence spectral techniques. […] The appearance of level-off in the visible region (500-700 nm) was attributed to the Mie scattering due to the formation of aggregates. […] Corroborating the results of molecular modelling studies, the changes in the UV-Vis spectra as well as the fluorescence spectrum of the compound on addition of COX-2 probably occurred due to the HOMO-LUMO interactions between 1 and the enzyme (Figure S27). The linear Stern-Volmer plot of decrease in fluorescence intensity at 567 nm on increasing COX-2 concentration gave Stern-Volmer constant Ksv 3.30x10^4 M^-1. The detection limit of the compound for COX-2 was 0.02 nM (Figure 27C, 27D).

The mark [1] stands for this setting: enzyme immunoassay, screened at 10^–4–10^–8 M, average of 3 experiments, SD ± 0.5 µM, read-out: IC50 COX-1.

As to `O=C1NC(=O)C(=Cc2cn(CCCCCn3c4ccccc4c(=O)c4ccccc43)c3ccccc23)C(=O)N1` [Compound 2, 5-((1-(5-(9-Oxoacridin-10(9H)-yl)pentyl)-1H-indol-3-yl)methylene)pyrimidine-2,4,6(1H, 3H, 5H)-trione], the concentration for half-maximal inhibition (IC50) (usually the concentration at which inhibition is half-maximal) at COX-1 is 40 µM. Further, on wt COX-2, half-maximal inhibition (IC50) was put at 0.1 µM and the “SI (IC50(COX-1)/IC50 (COX-2)” value stood at 400.

As to `O=C1NC(=O)C(=Cc2cn(CCCn3c4ccccc4c(=O)c4ccccc43)c3ccccc23)C(=O)N1` [Compound 3, 5-((1-(3-(9-Oxoacridin-10(9H)-yl)propyl)-1H-indol-3-yl)methylene)pyrimidine-2,4,6 (1H, 3H, 5H)-trione], the concentration for half-maximal inhibition (IC50) on COX-1 was above 100 µM. Moreover, at wt COX-2, the IC50 was 10 µM and the “SI (IC50(COX-1)/IC50 (COX-2)” value is above 10.

For the compound `CN1C(=O)C(=Cc2cn(CCCCCCn3c4ccccc4c(=O)c4ccccc43)c3ccccc23)C(=O)N(C)C1=O` [Compound 4], the half-maximal inhibitory concentration (IC50) against COX-1 is 33 µM; against wt COX-2 it was 2.15 µM. Moreover, the “SI (IC50(COX-1)/IC50 (COX-2)” value on wt COX-2 stood at 15.

As to `Cn1cc(/C=C2\C(=O)N(CCCCCCn3c4ccccc4c(=O)c4ccccc43)c3ccccc32)c2ccccc21` [Compound 5, (Z)-10-(6-(3-((1-Methyl-1H-indol-3-yl)methylene)-2-oxoindolin-1-yl)hexyl)acridin-9(10H)-one], the IC50 on COX-1 (setting [1]) was found to be 53 µM. For the same compound, at wt COX-2, it took 0.15 µM to reach half-maximal inhibition (IC50) and the “SI (IC50(COX-1)/IC50 (COX-2)” value is given as 350.

With `Cn1cc(/C=C2\C(=O)N(CCCCCn3c4ccccc4c(=O)c4ccccc43)c3ccccc32)c2ccccc21` [Compound 6, (Z)-10-(5-(3-((1-Methyl-1H-indol-3-yl)methylene)-2-oxoindolin-1-yl)pentyl)acridin-9(10H)-one], the IC50 on COX-1 (setting [1]) was determined as 60 µM. Besides, at wt COX-2, the IC50 was 0.35 µM and the “SI (IC50(COX-1)/IC50 (COX-2)” value is 160.

With `Cn1cc(/C=C2\C(=O)N(CCCn3c4ccccc4c(=O)c4ccccc43)c3ccccc32)c2ccccc21` [Compound 7, (Z)-10-(3-(3-((1-methyl-1H-indol-3-yl)methylene)-2-oxoindolin-1-yl)propyl)acridin-9(10H)-one], the IC50 on COX-1 (setting [1]) was above 100 µM. On wt COX-2, 22 µM corresponded to half-maximal inhibition (IC50) and the “SI (IC50(COX-1)/IC50 (COX-2)” value is on record as above 4.5.

As to `COc1cc(/C=C2\C(=O)N(CCCCCCn3c4ccccc4c(=O)c4ccccc43)c3ccccc32)cc(OC)c1O` [Compound 8, (Z)-10-(6-(3-(4-Hydroxy-3,5-dimethoxybenzylidene)-2-oxoindolin-1-yl)hexyl)acridin-9(10H)-one], the concentration for half-maximal inhibition (IC50) at COX-1 (setting [1]) stood at 48 µM. At wt COX-2, half-maximal inhibition (IC50) was put at 0.12 µM and the “SI (IC50(COX-1)/IC50 (COX-2)” value is 400.

As for `COc1cc(/C=C2\C(=O)N(CCCCCn3c4ccccc4c(=O)c4ccccc43)c3ccccc32)cc(OC)c1O` [Compound 9, (Z)-10-(5-(3-(4-Hydroxy-3,5-dimethoxybenzylidene)-2-oxoindolin-1-yl)pentyl)acridin-9(10H)-one], on COX-1 (setting [1]), the IC50 was 52 µM. Also, on wt COX-2, it took 0.23 µM to reach half-maximal inhibition (IC50) and the “SI (IC50(COX-1)/IC50 (COX-2)” value amounted to 250.

For the compound `COc1cc(/C=C2\C(=O)N(CCCn3c4ccccc4c(=O)c4ccccc43)c3ccccc32)cc(OC)c1O` [Compound 10, (Z)-10-(3-(3-(4-Hydroxy-3,5-dimethoxybenzylidene)-2-oxoindolin-1-yl)propyl)acridin-9(10H)-one], at COX-1 (setting [1]), the IC50 is above 100 µM. Also, at wt COX-2, it took 12 µM to reach half-maximal inhibition (IC50) and the “SI (IC50(COX-1)/IC50 (COX-2)” value is reported as above 8.

Consider `O=c1c2ccccc2n(CCCCCCBr)c2ccccc12` [Compound 13d, 10-(6-Bromohexyl)acridin-9(10H)-one], for which the IC50 at COX-1 (setting [1]) is above 100 µM. Also, on COX-2, the “decrease in fluorescence intensity (quenching) in the presence of COX-2” value is given as “Small decrease; also recorded: much less”. Also, at wt COX-2, it took 48.5 µM to reach half-maximal inhibition (IC50) and the “SI (IC50(COX-1)/IC50 (COX-2)” value is above 2.

Compound `O=Cc1cn(CCCCCCn2c3ccccc3c(=O)c3ccccc32)c2ccccc12` [Compound 15d, 1-(6-(9-Oxoacridin-10(9H)-yl)hexyl)-1H-indole-3-carbaldehyde] gave a concentration for half-maximal inhibition (IC50) on COX-1 above 100 µM. Moreover, the “decrease in fluorescence intensity (quenching) in the presence of COX-2” value at COX-2 was “Small decrease; also recorded: much less”. Also, on wt COX-2, inhibition was half-maximal at 23.5 µM (IC50) and the “SI (IC50(COX-1)/IC50 (COX-2)” value is given as above 4.
